Experimental data reported in patent EP3623369A1, “NOVEL MORPHOLINYL AMINE COMPOUNDS FOR THE TREATMENT OF AUTOIMMUNE DISEASE” (F. Hoffmann-La Roche AG, priority 2018, dated 2020).

Target: T1, hTLR7 (Homo sapiens, UniProt Q9NYK1)
T1 sequence (Q9NYK1 27-1049): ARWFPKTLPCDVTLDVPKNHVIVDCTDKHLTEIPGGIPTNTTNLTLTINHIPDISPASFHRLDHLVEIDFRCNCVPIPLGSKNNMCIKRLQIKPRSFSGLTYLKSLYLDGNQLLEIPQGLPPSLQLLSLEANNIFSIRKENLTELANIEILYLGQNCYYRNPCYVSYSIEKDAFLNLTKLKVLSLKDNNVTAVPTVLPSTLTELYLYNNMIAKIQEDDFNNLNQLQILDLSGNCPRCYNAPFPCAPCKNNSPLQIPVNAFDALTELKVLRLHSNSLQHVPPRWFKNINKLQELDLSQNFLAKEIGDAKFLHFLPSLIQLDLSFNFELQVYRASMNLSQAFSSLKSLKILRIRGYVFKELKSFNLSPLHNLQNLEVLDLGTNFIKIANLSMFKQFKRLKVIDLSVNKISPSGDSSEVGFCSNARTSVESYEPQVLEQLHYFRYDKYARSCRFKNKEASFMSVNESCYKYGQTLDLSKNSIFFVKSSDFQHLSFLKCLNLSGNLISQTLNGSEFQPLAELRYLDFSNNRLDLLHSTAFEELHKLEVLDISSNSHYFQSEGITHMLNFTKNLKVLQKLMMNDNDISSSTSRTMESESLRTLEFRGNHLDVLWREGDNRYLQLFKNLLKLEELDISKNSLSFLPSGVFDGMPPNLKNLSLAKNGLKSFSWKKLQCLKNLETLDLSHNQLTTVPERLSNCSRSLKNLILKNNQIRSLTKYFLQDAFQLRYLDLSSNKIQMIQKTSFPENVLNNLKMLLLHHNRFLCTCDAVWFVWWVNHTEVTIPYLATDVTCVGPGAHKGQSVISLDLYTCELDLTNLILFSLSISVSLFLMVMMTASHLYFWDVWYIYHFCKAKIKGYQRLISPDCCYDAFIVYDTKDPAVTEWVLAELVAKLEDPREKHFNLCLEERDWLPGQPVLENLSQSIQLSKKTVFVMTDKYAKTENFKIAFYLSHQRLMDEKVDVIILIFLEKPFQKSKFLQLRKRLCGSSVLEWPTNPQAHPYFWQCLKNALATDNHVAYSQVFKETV
Test: HEK293-Blue-hTLR-7 cells assay (SEAP reporter, R848 stimulation)
Assay type: cell-based
Settings: HEK293-Blue-hTLR7 cells, R848, 20 hrs; 0.003 is the lowest tested concentration; read-out: HEK/hTLR7 IC50
Description: The following tests were carried out in order to determine the activity of the compounds of formula (I) or (Ia) in HEK293-Blue-hTLR-7/8/9 cells assay.
HEK293-Blue-hTLR-7 cells assay:
A stable HEK293-Blue-hTLR-7 cell line was purchased from InvivoGen (Cat.#: hkb-htlr7, San Diego, California, USA). These cells were originally designed for studying the stimulation of human TLR7 by monitoring the activation of NF-κB. A SEAP (secreted embryonic alkaline phosphatase) reporter gene was placed under the control of the IFN-β minimal promoter fused to five NF-κB and AP-1-binding sites. The SEAP was induced by activating NF-κB and AP-1 via stimulating HEK-Blue hTLR7 cells with TLR7 ligands. Therefore the reporter expression was declined by TLR7 antagonist under the stimulation of a ligand, such as R848 (Resiquimod), for incubation of 20 hrs. The cell culture supernatant SEAP reporter activity was determined using QUANTI-Blue™ kit (Cat.#: rep-qb1, Invivogen, San Diego, Ca, USA) at a wavelength of 640 nm, a detection medium that turns purple or blue in the presence of alkaline phosphatase.
HEK293-Blue-hTLR7 cells were incubated at a density of 250,000∼450,000 cells/mL in a volume of 170 µL in a 96-well plate in Dulbecco's Modified Eagle's medium (DMEM) containing 4.5 g/L glucose, 50 U/mL penicillin, […], […], 2 mM L-glutamine, 10% (v/v) heat-inactivated fetal bovine serum with addition of 20 µL test compound in a serial dilution in the presence of final DMSO at 1% and 10 µL of 20uM R848 in above DMEM, perform incubation under 37 °C in a CO2 incubator for 20 hrs. Then 20 µL of the supernatant from each well was incubated with 180 µL Quanti-blue substrate solution at 37 °C for 2 hrs and the absorbance was read at 620∼655 nm using a spectrophotometer. The signalling pathway that TLR7 activation leads to downstream NF-κB activation has been widely accepted, and therefore similar reporter assay was modified for evaluating TLR7 antagonist.

Question: Which IC50 does the source give for `C[C@@H]1CN(c2ccc(C#N)n3nccc23)C[C@H](CN2Cc3ccc(OCCN(C)C)cc3C2)O1` [Example 28, 4-[(2S,6R)-2-[[5-[2-(dimethylamino)ethoxy]isoindolin-2-yl]methyl]-6-methyl-morpholin-4-yl]pyrazolo[1,5-a]pyridine-7-carbonitrile] here?
Answer: Its IC50 is 227 nM.

Question: With `C[C@@H]1CN(c2ccc(C#N)n3ncc(F)c23)C[C@H](CN2Cc3cc(N4CCNCC4)cnc3C2)O1` [Example 29, 3-fluoro-4-[(2R,6S)-2-methyl-6-[(3-piperazin-1-yl-5,7-dihydropyrrolo[3,4-b]pyridin-6-yl)methyl]morpholin-4-yl]pyrazolo[1,5-a]pyridine-7-carbonitrile] as the compound, how does the IC50 read?
Answer: Its IC50 is 49 nM.

Question: With `C[C@@H]1CN(c2ccc(C#N)c3nccnc23)C[C@H](CN2Cc3cc(N4CCNCC4)cnc3C2)O1` [Example 30, 8-[(2R,6S)-2-methyl-6-[(3-piperazin-1-yl-5,7-dihydropyrrolo[3,4-b]pyridin-6-yl)methyl]morpholin-4-yl]quinoxaline-5-carbonitrile] as the compound, how does the IC50 read?
Answer: The IC50 was 16 nM.

Question: How did the IC50 turn out when `C[C@@H]1CN(c2ccc(Cl)c3ncccc23)C[C@H](CN2Cc3ccc(N4CCNCC4)cc3C2)O1` [Example 31, (2R,6S)-4-(8-chloro-5-quinolyl)-2-methyl-6-[(5-piperazin-1-ylisoindolin-2-yl)methyl]morpholine] was run?
Answer: Its IC50 is 29 nM.

Question: How did the IC50 turn out when `C[C@@H]1CN(c2ccc(Cl)c3ncccc23)C[C@H](CN2CCc3cc(N4CCNCC4)ccc3C2)O1` [Example 32, (2R,6S)-4-(8-chloro-5-quinolyl)-2-methyl-6-[(6-piperazin-1-yl-3,4-dihydro-1H-isoquinolin-2-yl)methyl]morpholine] was run?
Answer: Its IC50 is 39 nM.

Question: How did the IC50 turn out when `C[C@@H]1CN(c2ccc(Cl)c3nccnc23)C[C@H](CN2Cc3ccc(N4CCNCC4)cc3C2)O1` [Example 33, (2R,6S)-4-(8-chloroquinoxalin-5-yl)-2-methyl-6-[(5-piperazin-1-ylisoindolin-2-yl)methyl]morpholine] was run?
Answer: The IC50 was 9 nM.

Question: Which IC50 does the source give for `C[C@@H]1CN(c2ccc(Cl)c3nccnc23)C[C@H](CN2CCc3cc(N4CCNCC4)ccc3C2)O1` [Example 34, (2R,6S)-4-(8-chloroquinoxalin-5-yl)-2-methyl-6-[(6-piperazin-1-yl-3,4-dihydro-1H-isoquinolin-2-yl)methyl]morpholine] here?
Answer: The IC50 was 23 nM.

Question: Which IC50 does the source give for `C[C@@H]1CN(c2ccc(C#N)c3nccnc23)C[C@H](CN2Cc3ccc(N4CCN(C5CC5)CC4)cc3C2)O1` [Example 35, 8-[(2S,6R)-2-[[5-(4-cyclopropylpiperazin-1-yl)isoindolin-2-yl]methyl]-6-methyl-morpholin-4-yl]quinoxaline-5-carbonitrile] here?
Answer: The IC50 was 41 nM.

Question: How did the IC50 turn out when `CC1CN(c2ccc3c(c2)CN(C[C@H]2CN(c4ccc(C#N)c5nccnc45)C[C@@H](C)O2)C3)CCN1` (stereo partly drawn) [Example 36, 8-[(2R,6S)-2-methyl-6-[[5-(3-methylpiperazin-1-yl)isoindolin-2-yl]methyl]morpholin-4-yl]quinoxaline-5-carbonitrile] was run?
Answer: Its IC50 is 10 nM.

Question: With `COCCN1CCN(c2ccc3c(c2)CN(C[C@H]2CN(c4ccc(C#N)c5nccnc45)C[C@@H](C)O2)C3)CC1` [Example 37, 8-[(2S,6R)-2-[[5-[4-(2-methoxyethyl)piperazin-1-yl]isoindolin-2-yl]methyl]-6-methyl-morpholin-4-yl]quinoxaline-5-carbonitrile] as the compound, how does the IC50 read?
Answer: Its IC50 is 50 nM.

Question: How did the IC50 turn out when `C[C@@H]1CN(c2ccc(C#N)c3nccnc23)C[C@H](CN2Cc3ccc(N4CCNC5(CC5)C4)cc3C2)O1` [Example 38, 8-[(2S,6R)-2-[[5-(4,7-diazaspiro[2.5]octan-7-yl)isoindolin-2-yl]methyl]-6-methyl-morpholin-4-yl]quinoxaline-5-carbonitrile] was run?
Answer: The IC50 was 23 nM.

Question: `C[C@@H]1CN(c2ccc(C#N)c3nccnc23)C[C@H](CN2Cc3ccc(N4CCN5CCCCC5C4)cc3C2)O1` (stereo partly drawn) [Example 40, 8-[(2S,6R)-2-[[5-(1,3,4,6,7,8,9,9a-octahydropyrido[1,2-a]pyrazin-2-yl)isoindolin-2-yl]methyl]-6-methyl-morpholin-4-yl]quinoxaline-5-carbonitrile] was tested. Which IC50 did it give?
Answer: Its IC50 is 33 nM.

Question: Which IC50 does the source give for `C[C@@H]1CN(c2ccc(C#N)c3nccnc23)C[C@H](CN2Cc3ccc(N4C5CCC4CNC5)cc3C2)O1` [Example 41, 8-[(2S,6R)-2-[[5-(3,8-diazabicyclo[3.2.1]octan-8-yl)isoindolin-2-yl]methyl]-6-methyl-morpholin-4-yl]quinoxaline-5-carbonitrile] here?
Answer: Its IC50 is 59 nM.

Question: `C[C@@H]1CN(c2ccc(C#N)c3ncccc23)C[C@H](CN2Cc3ccc(N4CC5CCC(C4)N5)cc3C2)O1` [Example 42, 5-[(2S,6R)-2-[[5-(3,8-diazabicyclo[3.2.1]octan-3-yl)isoindolin-2-yl]methyl]-6-methyl-morpholin-4-yl]quinoline-8-carbonitrile] was tested. Which IC50 did it give?
Answer: Its IC50 is 62 nM.

Question: `C[C@@H]1CN(c2ccc(C#N)c3ncccc23)C[C@H](CN2Cc3ccc(N4C5CCC4CNC5)cc3C2)O1` [Example 43, 5-[(2S,6R)-2-[[5-(3,8-diazabicyclo[3.2.1]octan-8-yl)isoindolin-2-yl]methyl]-6-methyl-morpholin-4-yl]quinoline-8-carbonitrile] was tested. Which IC50 did it give?
Answer: Its IC50 is 60 nM.

Question: `C[C@@H]1CN(c2ccc(C#N)c3ncccc23)C[C@H](CN2Cc3ccc(N4C5CNCC4COC5)cc3C2)O1` [Example 46, 5-[(2R,6S)-2-methyl-6-[[5-(3-oxa-7,9-diazabicyclo[3.3.1]nonan-9-yl)isoindolin-2-yl]methyl]morpholin-4-yl]quinoline-8-carbonitrile] was tested. Which IC50 did it give?
Answer: The IC50 was 74 nM.

Question: Which IC50 does the source give for `C[C@@H]1CN(c2ccc(C#N)c3ncccc23)C[C@H](CN2Cc3ccc(N4CC5(CNC5)C4)cc3C2)O1` [Example 47, 5-[(2S,6R)-2-[[5-(2,6-diazaspiro[3.3]heptan-2-yl)isoindolin-2-yl]methyl]-6-methyl-morpholin-4-yl]quinoline-8-carbonitrile] here?
Answer: Its IC50 is 84 nM.

Question: For `CC1c2ccc(N3CCNCC3)cc2CN1C[C@H]1CN(c2ccc(C#N)c3ncccc23)C[C@@H](C)O1` (stereo partly drawn) [Example 48, 5-[(2R,6S)-2-methyl-6-[(1-methyl-5-piperazin-1-yl-isoindolin-2-yl)methyl]morpholin-4-yl]quinoline-8-carbonitrile], which IC50 is on record?
Answer: Its IC50 is 238 nM.

Question: `C[C@@H]1CN(c2ccc(C#N)c3nccnc23)C[C@H](CN2Cc3ccc(N4CC5COCC(C4)N5)cc3C2)O1` [Example 49, 8-[(2R,6S)-2-methyl-6-[[5-(3-oxa-7,9-diazabicyclo[3.3.1]nonan-7-yl)isoindolin-2-yl]methyl]morpholin-4-yl]quinoxaline-5-carbonitrile] was tested. Which IC50 did it give?
Answer: The IC50 was 50 nM.

Question: How did the IC50 turn out when `CCOC(=O)C1CNCCN1c1ccc2c(c1)CN(C[C@H]1CN(c3ccc(C#N)c4ncccc34)C[C@@H](C)O1)C2` (stereo partly drawn) [Example 50, Ethyl 1-[2-[[(2S,6R)-4-(8-cyano-5-quinolyl)-6-methyl-morpholin-2-yl]methyl]isoindolin-5-yl] piperazine-2-carboxylate] was run?
Answer: Its IC50 is 85 nM.

Question: With `C[C@@H]1CN(c2ccc(C#N)c3ncccc23)C[C@H](CN2Cc3ccc(N4CC5(CCN5)C4)cc3C2)O1` [Example 55, 5-[(2S,6R)-2-[[5-(1,6-diazaspiro[3.3]heptan-6-yl)isoindolin-2-yl]methyl]-6-methyl-morpholin-4-yl]quinoline-8-carbonitrile] as the compound, how does the IC50 read?
Answer: The IC50 was 80 nM.
